# Biological target: Beta-lactamase (Escherichia coli K-12, UniProt P00811)
# Test: Inhibition of Escherichia coli AmpC assessed as nitrocefin hydrolysis by UV-Vis spectrophotometry
# Beta-lactamase, sequence (P00811 whole entry): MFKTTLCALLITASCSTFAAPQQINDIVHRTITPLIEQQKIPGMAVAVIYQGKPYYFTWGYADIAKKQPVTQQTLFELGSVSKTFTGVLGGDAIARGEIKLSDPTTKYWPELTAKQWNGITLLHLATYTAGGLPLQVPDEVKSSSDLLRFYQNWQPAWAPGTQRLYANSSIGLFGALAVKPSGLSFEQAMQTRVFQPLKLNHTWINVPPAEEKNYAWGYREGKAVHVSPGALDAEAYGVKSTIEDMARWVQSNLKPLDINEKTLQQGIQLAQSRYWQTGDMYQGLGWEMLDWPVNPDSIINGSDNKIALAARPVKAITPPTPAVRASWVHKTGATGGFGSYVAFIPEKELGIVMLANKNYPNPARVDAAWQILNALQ
row,Ki [mM],Structure (SMILES)
1,0.001,O=C(O)c1ccc(NS(=O)(=O)c2ccsc2C(=O)O)c(O)c1
2,10,CS(=O)(=O)Nc1ccc(C(=O)O)cc1
3,40,O=C(O)c1cccs1 [THIOPHENE CARBOXYLIC ACID]

# Source: ChEMBL document CHEMBL1221193, “Deconstructing fragment-based inhibitor discovery” (Nat Chem Biol, 2006)
